Measurements from patent US11548875B2, “Inhibitor compounds for male contraception” (University of Washington, priority 2018, dated 2023).
Entries after “also recorded” stand apart in the source; their conditions may differ.

Experiments:
men = conditions: cited from earlier work
[1] = test system: New Zealand white rabbits; assay: Oral WIN 18,446 in rabbits: ejaculated sperm, testicular retinoic acid, serum testosterone; type: in vivo, rabbit
Excerpt: In 2011, it was discovered that WIN 18,446 suppresses spermatogenesis by inhibiting testicular retinoic acid biosynthesis.
All animals were azoospermic between week 16 of treatment and week 8 of recovery. Animals underwent a hemi-orchiectomy at the end of treatment, which accounts for the 50% reduction in sperm output at the end of recovery. *p<0.05 compared with baseline.
FIG. 1C compares testicular tissue retinoic acid concentration (pmol/g of tissue) in New Zealand white rabbits treated with 200 mg/kg WIN 18,446 daily, orally over time (N=4/group). […] All values are means±SEM. *p<0.05 compared with placebo, **p<0.01.

O=C(NCCCCCCCCNC(=O)C(Cl)Cl)C(Cl)Cl [WIN 18,446]
sperm concentration (men; at least sixty men, up to one year): below 1 million sperm/ml of ejaculate | adverse reaction with alcohol (men; men, when they drank alcohol): disulfiram reaction | testicular tissue retinoic acid concentration ([1]; 200 mg/kg daily, orally over time): reduction in intra-testicular retinoic acid | ejaculated sperm concentrations ([1]; 200 mg/kg orally for 16 weeks, 200 mg/kg): reversible azoospermia; also recorded: azoospermic
